{"source": "the NIST ThermoML archive (doi:10.1021/acs.jced.9b00362)", "key": {"[1]": {"details": "Crystal; DSC"}, "[2]": {"assay": "Molar enthalpy of transition or fusion", "details": "Crystal; DSC"}}, "note": "Numbers after ± are expanded uncertainties.", "data": [{"compound": "O=P(O)(O)c1ccccc1", "note": "[phenylphosphonic acid]", "values": [{"measurement": "Triple point temperature", "setting": "[1]", "value": "437.53 ± 0.93", "unit": "K"}, {"measurement": "Molar enthalpy of transition or fusion", "setting": "[2]", "value": "5.72 ± 0.502", "unit": "kcal/mol"}]}]}
